# Read-outs that look alike come from different tables or passages of the source.
# Legend:
# TRPM8 [1] = biological target: T1, TRPM8 (Homo sapiens, UniProt Q7Z2W7); conditions: Ref#3; cited from earlier work
# tongue = test: Oral cavity screen, 15 mg of white crystals on dorsal surface of the tongue; assay type: in vivo, human
# Protocol: The first screening tests conducted in this discovery to assess candidates that produce refreshing cooling in the oral cavity. Test agents, prepared as 15 mg of white crystals, were placed on the dorsal surface of the tongue. The chemical structures and identifying characteristics are in Table 1.
# skin = conditions: for treatment of skin dysesthesia (insect bites, skin allergies, thermal injury): topical gel on skin
# TRPM8 [2] = biological target: T1, TRPM8; conditions: Ref#6; cited from earlier work
# philtrum skin = test: Philtrum skin assay of cooling; assay type: in vivo, human; conditions: for Comments (sensation) / Duration (min) of cooling: 8% wt/vol gel on philtrum skin
# From the text: Wei (2012) proposed the use of the skin on the philtrum as a test site for cooling activity of chemicals. The philtrum is the midline groove above the upper lip border and vermilion and is the drug application site. The gel is placed on the philtrum with a cotton-tipped applicator up to the nasolabial folds and sometimes, but not deliberately, on the lower nostrils (subnasale). Cold receptors densely innervate the philtrum skin, second only to the surfaces of the eyeball, nasal surfaces, and anogenitalia. The lips also have a high density of “cold spots.” This is called the philtrum assay. The test substance is dissolved in a carrier, such as solvent, gel, or ointment and applied to the philtrum, a surface area of ˜10 to 12 cm2. The subject records sensations on the philtrum and environs on a scale of 0 to 3, as: 0=no changes in sensation, 1=a slight feeling of coolness, cold or tingling, 2=a clearcut feeling of coolness or cold and 3=a robust feeling of coolness and cold. The intervals for measurements are usually 0, 1, 3, 5 min after application, and at then 5 min or longer intervals thereafter until two successive zeros are obtained. Test substances are applied to the philtrum using a cotton-tipped applicator (Puritan Cotton-tipped applicators, or Q-Tips). The applicator tip is dipped into a reservoir bottle containing the liquid or semi-liquid (gel) test substance. The composition adhering to the cotton (about 0.2 mL) is put on the skin. A subject can practice the method in front of a mirror with a high-intensity light source.
# TRPM8 [3] = biological target: T1, TRPM8; conditions: Ref#2; cited from earlier work
# TRPA1 = biological target: T2, TRPA1 (Homo sapiens, UniProt O75762); test: Bioassay in cells transfected with TRPA1, Prof. Lee laboratory, Duke University; assay type: cell-based
# T2 construct: expressed in transfected cells
# From the text: Data from the laboratory of Prof. Seok-Yong Lee's at Duke University.
# Seok-Yong Lee at Duke University (FIG. 3).
# TRPM8 [4] = biological target: T1, TRPM8; test: Bioassay of FEMA 4557 (BUDA) on TRPM8, Prof. Lee laboratory, Duke University; assay type: cell-based
# nasal cavity = test: Study 1: NasoNeb nebulizer delivery to nasal cavity of subjects with rhinitis; assay type: in vivo, human
# Protocol: Study 1. In this first study, a specialized nebulizer with an electronically controlled compressor was used to deliver FEMA 4557 to the nasal cavity of subjects with rhinitis. A typical dosage regimen was a 1.0 to 1.5% wt/vol solution (10 to 15 mg/mL) of FEMA 4557 over a 3 to 5 sec delivery period. […] No attempt was made to differentiate between delivered versus retained dose. The severity of rhinitis was quantified by gravimetric measurement of secretions and exudates from the nasal cavity (FIG. 15). Subjects were instructed to blow into a pre-weighed paper tissue and record the weight of the tissue after blowing. The tissue was inspected and marked as clear, with streaks of exudates, or dense gel. The nasal blowouts fell into three distinct categories of weights that were easy to recognize. […] The weight of the blowouts provides an objective index of nasal cavity inflammation. Nasal secretions were inhibited by topical administration of FEMA 4557, dissolved at 15 mg/ml in an ethanol, polysorbate 80, and saline mixture (FIG. 16). A Nasoneb® apparatus delivered FEMA 4557 into the nasal cavity (FIG. 13). The test substance was sprayed into the nasal cavity for 5 sec at t=0, 2, and 5 hr. The data points were fitted by linear regression (GraphPad Prism), and the 10-hr secretion was measured as ([…]). The results were vehicle 3.16±0.10 g and FEMA 4557 1.86±0.07 g, with n=6 and 5 observations per group, respectively. […] Inhibition of nasal secretions by topical administration of FEMA 4557, 15 mg/ml, delivered into the nasal cavity, is further illustrated by plotting the individual blowout units, in g per blowout FIG. 17. The test substances were sprayed into the nasal cavity for 5 sec at t=0, 2, and 5 hr. […] Thus, the anti-inflammatory effect of FEMA 4557 is further confirmed.
# [5] = biological target: mouse cold-menthol receptor TRPM8 (Mus musculus, UniProt Q8R4D5); conditions: Ref#1; cited from earlier work
# mouse cold-menthol receptor TRPM8, sequence (Q8R4D5 whole entry): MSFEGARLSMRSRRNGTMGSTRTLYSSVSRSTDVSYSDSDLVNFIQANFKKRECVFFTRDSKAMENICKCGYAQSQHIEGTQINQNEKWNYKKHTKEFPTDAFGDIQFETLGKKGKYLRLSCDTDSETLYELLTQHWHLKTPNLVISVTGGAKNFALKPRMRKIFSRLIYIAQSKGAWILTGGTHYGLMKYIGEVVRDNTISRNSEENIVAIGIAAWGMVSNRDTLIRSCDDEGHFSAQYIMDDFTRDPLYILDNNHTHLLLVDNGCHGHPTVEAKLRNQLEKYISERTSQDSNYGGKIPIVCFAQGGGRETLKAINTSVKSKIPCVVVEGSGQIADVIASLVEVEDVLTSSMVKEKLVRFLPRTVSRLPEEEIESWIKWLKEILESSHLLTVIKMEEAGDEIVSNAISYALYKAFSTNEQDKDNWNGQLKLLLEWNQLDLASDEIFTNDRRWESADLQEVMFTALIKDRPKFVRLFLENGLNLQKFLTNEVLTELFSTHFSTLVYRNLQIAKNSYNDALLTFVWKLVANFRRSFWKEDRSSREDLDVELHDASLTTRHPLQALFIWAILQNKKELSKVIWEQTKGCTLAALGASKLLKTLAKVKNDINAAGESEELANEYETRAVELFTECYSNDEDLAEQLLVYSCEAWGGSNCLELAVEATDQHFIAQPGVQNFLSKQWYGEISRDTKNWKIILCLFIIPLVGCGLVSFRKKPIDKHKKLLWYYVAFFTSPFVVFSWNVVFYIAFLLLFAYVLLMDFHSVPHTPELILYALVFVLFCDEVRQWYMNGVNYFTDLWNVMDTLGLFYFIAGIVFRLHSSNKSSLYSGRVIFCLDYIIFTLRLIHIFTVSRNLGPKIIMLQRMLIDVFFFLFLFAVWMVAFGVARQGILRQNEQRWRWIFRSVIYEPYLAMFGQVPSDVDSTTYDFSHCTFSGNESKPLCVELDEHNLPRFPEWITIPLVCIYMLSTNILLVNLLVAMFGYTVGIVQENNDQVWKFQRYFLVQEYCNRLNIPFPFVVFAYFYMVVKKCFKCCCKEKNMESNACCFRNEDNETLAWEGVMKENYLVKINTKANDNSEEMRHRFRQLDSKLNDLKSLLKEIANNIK
# T1 sequence (Q7Z2W7 whole entry, species assumed): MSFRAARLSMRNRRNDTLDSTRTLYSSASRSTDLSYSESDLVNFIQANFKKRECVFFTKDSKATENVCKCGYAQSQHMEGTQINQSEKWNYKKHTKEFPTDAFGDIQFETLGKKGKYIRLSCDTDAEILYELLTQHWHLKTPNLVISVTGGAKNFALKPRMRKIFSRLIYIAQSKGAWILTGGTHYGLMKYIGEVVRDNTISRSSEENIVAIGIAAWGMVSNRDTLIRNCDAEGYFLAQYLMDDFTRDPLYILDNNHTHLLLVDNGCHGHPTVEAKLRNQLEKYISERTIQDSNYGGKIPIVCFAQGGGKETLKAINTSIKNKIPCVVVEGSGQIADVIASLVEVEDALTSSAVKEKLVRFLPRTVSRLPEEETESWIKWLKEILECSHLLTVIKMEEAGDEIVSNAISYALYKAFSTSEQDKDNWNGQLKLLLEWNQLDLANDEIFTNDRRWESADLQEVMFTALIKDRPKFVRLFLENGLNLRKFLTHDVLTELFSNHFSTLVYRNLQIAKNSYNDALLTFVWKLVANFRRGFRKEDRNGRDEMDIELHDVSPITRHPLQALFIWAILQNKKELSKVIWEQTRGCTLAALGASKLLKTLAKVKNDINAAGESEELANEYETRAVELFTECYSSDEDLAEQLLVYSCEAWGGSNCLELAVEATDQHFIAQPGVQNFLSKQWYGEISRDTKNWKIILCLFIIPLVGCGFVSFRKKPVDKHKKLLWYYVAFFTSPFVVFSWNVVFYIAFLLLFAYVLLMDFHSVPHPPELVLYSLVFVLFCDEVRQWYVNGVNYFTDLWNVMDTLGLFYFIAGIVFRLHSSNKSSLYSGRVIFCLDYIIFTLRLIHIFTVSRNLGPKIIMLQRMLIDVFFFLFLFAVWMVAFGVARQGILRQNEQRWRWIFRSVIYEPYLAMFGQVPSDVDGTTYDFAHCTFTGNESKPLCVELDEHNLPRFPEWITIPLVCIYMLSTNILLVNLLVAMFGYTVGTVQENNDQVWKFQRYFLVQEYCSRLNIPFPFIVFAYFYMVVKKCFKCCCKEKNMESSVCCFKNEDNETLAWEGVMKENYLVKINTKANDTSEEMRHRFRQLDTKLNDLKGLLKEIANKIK
# T2 sequence (O75762 whole entry, species assumed): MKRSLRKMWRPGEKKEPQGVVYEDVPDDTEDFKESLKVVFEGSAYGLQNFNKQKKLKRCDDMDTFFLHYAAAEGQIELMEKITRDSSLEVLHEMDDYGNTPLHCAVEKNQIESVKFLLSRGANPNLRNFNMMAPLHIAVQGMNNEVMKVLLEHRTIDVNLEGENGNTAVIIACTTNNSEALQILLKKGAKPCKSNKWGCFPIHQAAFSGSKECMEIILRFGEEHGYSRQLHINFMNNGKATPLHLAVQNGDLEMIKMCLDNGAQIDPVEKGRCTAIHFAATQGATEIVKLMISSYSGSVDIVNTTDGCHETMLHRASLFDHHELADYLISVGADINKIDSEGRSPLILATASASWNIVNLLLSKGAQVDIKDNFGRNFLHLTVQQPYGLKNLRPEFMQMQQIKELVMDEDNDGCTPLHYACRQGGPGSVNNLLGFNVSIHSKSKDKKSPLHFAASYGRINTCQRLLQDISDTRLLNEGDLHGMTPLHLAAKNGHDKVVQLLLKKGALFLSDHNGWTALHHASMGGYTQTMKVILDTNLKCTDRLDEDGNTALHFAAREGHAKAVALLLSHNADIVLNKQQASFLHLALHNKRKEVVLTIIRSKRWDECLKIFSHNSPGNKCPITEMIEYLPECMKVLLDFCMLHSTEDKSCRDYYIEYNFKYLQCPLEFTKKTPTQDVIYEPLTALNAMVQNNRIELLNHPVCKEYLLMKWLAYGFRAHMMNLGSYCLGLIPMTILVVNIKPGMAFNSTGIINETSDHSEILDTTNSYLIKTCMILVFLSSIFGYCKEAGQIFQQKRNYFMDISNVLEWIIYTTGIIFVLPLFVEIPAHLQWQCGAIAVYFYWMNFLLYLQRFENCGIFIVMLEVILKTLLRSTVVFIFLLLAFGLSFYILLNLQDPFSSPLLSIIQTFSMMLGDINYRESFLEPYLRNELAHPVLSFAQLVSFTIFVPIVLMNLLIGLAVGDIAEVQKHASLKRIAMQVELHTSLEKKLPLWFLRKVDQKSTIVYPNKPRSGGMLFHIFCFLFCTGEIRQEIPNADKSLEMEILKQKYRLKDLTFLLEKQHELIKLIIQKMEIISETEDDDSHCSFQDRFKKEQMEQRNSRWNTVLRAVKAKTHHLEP
smiles,measurement,setting,value
CCOC(=O)CNC(=O)[C@@H]1C[C@H](C)CC[C@H]1C(C)C [WS-5],EC50,TRPM8 [1],0.5 µM
same,Effects of 15 mg on tongue (duration),tongue,~12 min
same,Effects of 15 mg on tongue (sensation),tongue,pleasant cooling in oral cavity
same,"treatment of skin dysesthesia (insect bites, skin allergies, thermal injury)",skin,ineffective
same,EC50,TRPM8 [2],26 µM
same,Comments (sensation),philtrum skin,pleasant cool sensations of skin
same,Duration (min) of cooling,philtrum skin,51 ± 4 min
CNC(=O)C(C)(C(C)C)C(C)C [WS-23],EC50,TRPM8 [1],2.2 µM
same,Effects of 15 mg on tongue (duration),tongue,too short-lived
same,Effects of 15 mg on tongue (sensation),tongue,painful cold in throat
same,Effects of 15 mg on tongue (duration),tongue; listed as 3804,~18 min
same,"treatment of skin dysesthesia (insect bites, skin allergies, thermal injury)",skin,ineffective
same,EC50,TRPM8 [2],1500 µM
same,Comments (sensation),philtrum skin,"short duration of action, no overt cold, but more"
same,Duration (min) of cooling,philtrum skin,25 ± 3 min
CCOC(=O)[C@@H](C)NC(=O)[C@@H]1C[C@H](C)CC[C@H]1C(C)C [CPS-369],EC50,TRPM8 [3],3.6 µM
same,EC50,TRPM8 [2],65 µM
"CCCCCCCP(=O)(C(C)C)C(C)C [Cryosim-1, 1-diisopropyl-phosphorylheptane]",Effects of 15 mg on tongue (sensation),tongue,"stinging, painful cold"
"C=CCN=C=S [AITC, allyl isothiocyanate]",activity on TRPA1,TRPA1,active
O=C1NC(c2cccc([N+](=O)[O-])c2)=CCN1c1ccccc1O [icilin],EC50,TRPM8 [2],7 µM
CC1CCC(C(C)C)C(C(=O)OCC(O)CO)C1 (centres unmarked) [WS-30],EC50,TRPM8 [3],5.6 µM
CCNC(=O)[C@@H]1C[C@H](C)CC[C@H]1C(C)C [WS-3],EC50,TRPM8 [1],5.9 µM
same,Effects of 15 mg on tongue (duration),tongue,~8 min
same,Effects of 15 mg on tongue (sensation),tongue,pleasant cooling in oral cavity
same,EC50,TRPM8 [2],210 µM
"CCNC(=O)C(CC)(C(C)C)C(C)C [FEMA 4557, N-ethyl-2,2-diisopropyl butanamide]",EC50,TRPM8 [1],1.6 µM
same,Effects of 15 mg on tongue (duration),tongue,> 35 min
same,tissue irritation or inflammation on skin,"skin; human, in vivo",no tissue irritation or inflammation appeared on the skin
same,duration of stopping irritation of an insect sting,skin; topical gel 8 to 16% wt/vol,≥ 3 h
same,onset of stopping irritation of an insect sting,skin; topical gel 8 to 16% wt/vol,less than 3 minutes
same,topical concentration with anti-inflammatory activity on skin,skin; total dose of several mg,≥ 5 % wt/vol
same,EC50 relative to that of l-menthol,TRPM8 [4],about 1/30
same,10-hr nasal secretion (avg.±s.e.m),"nasal cavity; 15 mg/mL, 5 sec at t=0, 2 and 5 hr, NasoNeb, n=5, vehicle 3.16±0.10 g",1.86±0.07 g
same,individual nasal blowouts (average±s.e.m.),"nasal cavity; 15 mg/mL, 5 sec at t=0, 2 and 5 hr, NasoNeb, n=56, vehicle 0.38±0.03 g",0.21 ± 0.03 g
same,concentration that stops stuffiness of rhinitis and inhibits phlegm secretion,nasal cavity; applied to inflamed nasal membranes,≤ 1.5 % wt/vol
same,onset of beneficial effects after delivery,nasal cavity; topical nasal delivery,≤ 15 min
same,average time of cooling,philtrum skin; 2% concentration,50 min
same,average time of cooling,philtrum skin; 4% concentration,95 min
same,average time of cooling,philtrum skin; 8% concentration,≥ 175 min
same,duration of cooling,"philtrum skin; 8% gel, FIG. 4",~3 h
same,Duration (min) of cooling,philtrum skin,180+ min
same,irritation of the skin,philtrum skin; concentrations of up to 12% weight/volume on philtrum skin,no irritation of the skin was observed with FEMA
same,activity on TRPA1,TRPA1,not active
COc1ccc(NC(=O)[C@@H]2C[C@H](C)CC[C@H]2C(C)C)cc1 [WS-12],EC50,TRPM8 [1],22.1 µM
same,Effects of 15 mg on tongue (duration),tongue,~20 min
same,Effects of 15 mg on tongue (sensation),tongue,pleasant cooling in oral cavity
same,EC50,TRPM8 [3],0.2 µM
same,"treatment of skin dysesthesia (insect bites, skin allergies, thermal injury)",skin,ineffective
same,Comments (sensation),philtrum skin,pleasant cool sensations on skin
same,Duration (min) of cooling,philtrum skin,38 ± 4 min
"CC(C)[C@@H]1CC[C@@H](C)C[C@H]1OCC(O)CO (some centres unmarked) [Cool 10, menthoxypropanediol]",EC50,[5],6 µM
"CC(C)OC(=O)CNC(=O)[C@@H]1C[C@H](C)CC[C@H]1C(C)C [Ax-8, p-Menthane-Gly- OiPr]",Effects of 15 mg on tongue (duration),tongue,~27 min
same,Effects of 15 mg on tongue (sensation),tongue,pleasant cooling in oral cavity

# — patent US20250228800A1, “Treatment of nasal cavity inflammation and mucus hypersecretion” (priority 2024, published 2025)
